{"source": "patent US20050112128A1", "about": "“Inhibition of protein kinase c-mu (PKD) as a treatment for cardiac hypertrophy and heart failure” (Myogen, Inc. and Board of Regents, The University of Texas …, priority 2003, published 2005)", "key": {"[1]": {"system": "nuclear export of HDAC5 in COS cells", "assay": "GFP-HDAC5 nuclear export in transfected COS cells (fluorescence microscopy)", "type": "cell-based", "settings": "COS cells transfected with GFP-HDAC5; 60 min after addition of compounds", "method": "FIGS. 1A-D—PKC-dependent nuclear export of HDAC5. FIG. 1A. COS cells were cultured on 6-well dishes, transfected with a GFP-HDAC5 expression vector (1 μg) and stimulated with the indicated compounds, as described in Materials and Methods. Sixty minutes after addition of compounds, GFP-HDAC5 distribution was determined by fluorescence microscopy. […] FIG. 1B. COS cells were transfected with expression vectors encoding FLAG-tagged versions of either HDAC5 or an HDAC5 mutant harboring alanines in place of serines 259 and 498 (HDAC5 S259/498A) (1 μg each). Cells were stimulated with PMA for 60 min and HDAC5 distribution was determined by indirect immunofluorescence with anti-FLAG primary antibody and fluorecein-conjugated secondary antibody. HDAC5 259/498A is refractory to PMA stimulation. FIG. 1C. COS cells transfected with GFPHDAC5 encoding expression vector (1 μg) and stimulated with PMA for the indicated times. FIG. 1D. COS cells were transiently transfected with expression vectors encoding FLAG-tagged versions of HDAC5 or HDAC5 S259/498A (1 μg each). Cells were pretreated with the PKC inhibitor bisindolylmaleimide (Bis I; 10 μM) for 30 minutes and stimulated with PMA for 30 min, as indicated. Association of FLAG-HDAC5 with endogenous 14-3-3 was detected by sequential immunoprecipitation and immunoblotting.\nCell culture and transfection assays. COS cells were maintained in DMEM with FBS (10%), L-glutamine (2 mM), and penicillin-streptomycin. Transfection of COS cells was performed with Fugene 6 (Roche Molecular Biochemicals) according to manufacturer's instructions. For HDAC localization experiments, cells were treated 16-24 hours after transfection with PMA (100 nM), ionomycin […], 8-Br-cAMP (1 mM), pCPT-GMP (1 mM), or anisomycin (1 mM). Where noted, specific protein kinase inhibitors were added 30 min prior to the addition of any chemical stimulus. GFP-HDAC5 was visualized with standard fluorescent microscopic techniques. For indirect immunofluorescence of FLAG-HDAC5, COS cells were seeded on glass coverslips, transfected, and treated as above. After specific treatment, cells were fixed with buffered formalin (10%) and stained in PBS containing BSA (3%) and Nonidet P-40 (0.1%). Flag M2 antibody (Sigma) was used at a concentration of 1:200. Secondary fluoresceine-conjugated antibody (Vector Laboratories) was also used at a concentration of 1:200. Staining of cardiomyocytes for sarcomeres and atrial natriuretic factor (ANF) was performed by indirect immunofluorescence detection as above with antibodies directed against sarcomeric α-actinin (Sigma) and ANF (Peninsula Laboratories), respectively."}, "HDAC5-bound PKD": {"system": "HDAC5-bound PKD", "type": "biochemical, rat", "settings": "NRVMs pre-treated 30 min with 10 μM inhibitor (pre-Bis I)"}, "[2]": {"system": "nuclear export of GFP-HDAC5 in NRVMs", "assay": "Quantitative HDAC5 nuclear export assay in NRVMs (Cellomics High Content Imaging System)", "type": "cell-based, rat", "settings": "2 hrs; for block of PE-induced nuclear export of HDAC5: PE 20 μM, KN93, wortmannin, staurosporine 1 mM, U1026, HA1077, Y-27632, DAG Kinase inhibitor II, SB216763, Bis I 10 mM, rapamycin 30 ng/ml, Gö6983 10 μM"}, "PKD": {"biological_target": "T1, PKD (Homo sapiens, UniProt Q15139)", "T1 sequence (Q15139 1-912)": "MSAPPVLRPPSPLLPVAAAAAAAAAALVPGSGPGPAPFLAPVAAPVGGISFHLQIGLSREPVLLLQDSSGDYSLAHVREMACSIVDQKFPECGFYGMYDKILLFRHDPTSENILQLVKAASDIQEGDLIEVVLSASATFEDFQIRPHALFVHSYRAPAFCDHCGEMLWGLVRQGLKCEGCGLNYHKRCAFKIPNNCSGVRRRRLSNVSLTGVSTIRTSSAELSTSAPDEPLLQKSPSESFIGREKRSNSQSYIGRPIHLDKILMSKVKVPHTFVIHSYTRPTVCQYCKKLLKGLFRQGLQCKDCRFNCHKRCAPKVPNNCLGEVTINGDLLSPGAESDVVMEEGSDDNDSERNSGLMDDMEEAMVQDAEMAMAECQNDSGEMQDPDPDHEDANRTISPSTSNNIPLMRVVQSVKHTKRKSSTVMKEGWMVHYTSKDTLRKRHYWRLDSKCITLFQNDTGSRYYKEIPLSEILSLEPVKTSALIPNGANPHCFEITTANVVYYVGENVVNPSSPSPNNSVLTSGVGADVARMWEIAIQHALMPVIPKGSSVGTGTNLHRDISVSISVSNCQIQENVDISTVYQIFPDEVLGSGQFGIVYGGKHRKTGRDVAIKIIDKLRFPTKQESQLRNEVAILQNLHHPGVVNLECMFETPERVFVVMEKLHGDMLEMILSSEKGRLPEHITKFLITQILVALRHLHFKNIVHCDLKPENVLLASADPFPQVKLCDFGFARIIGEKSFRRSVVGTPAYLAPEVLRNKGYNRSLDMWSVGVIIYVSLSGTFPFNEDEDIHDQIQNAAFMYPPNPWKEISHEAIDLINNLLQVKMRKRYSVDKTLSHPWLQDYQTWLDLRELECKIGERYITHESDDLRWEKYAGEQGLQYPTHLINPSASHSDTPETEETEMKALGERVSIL", "settings": "literature (Van Lint 2002; Gschwendt 1996; Haworth); cited from earlier work"}, "[3]": {"settings": "NRVMs, inhibitor pre-treatment 30 min"}}, "note": "“Also recorded” adds a separate entry of the source. Where no end group is shown, it is not given here.", "data": [{"compound": "Nc1ncnc2c1nc(Br)n2[C@@H]1O[C@@H]2COP(=O)(O)O[C@H]2[C@H]1O", "note": "[8-Br-cAMP]", "values": [{"measurement": "stimulation of nuclear export of GFP-HDAC5", "setting": "[1]", "result": "only ionomycin and PMA stimulated nuclear export"}]}, {"compound": "CN(C)CCCn1cc(C2=C(c3c[nH]c4ccccc34)C(=O)NC2=O)c2ccccc21", "note": "[Bis I, bisindolylmaleimide I]", "values": [{"measurement": "block of HDAC5 phosphorylation, inhibitor given to cells before PMA", "setting": "HDAC5-bound PKD", "result": "Phosphorylation of HDAC5 was blocked"}, {"measurement": "block of ET-1-induced nuclear export of HDAC5", "setting": "[2]; NRVMs, ET-1 50 nM, inhibitor pre-treatment 30 min", "result": "had no effect"}, {"measurement": "block of FBS-induced nuclear export of HDAC5", "setting": "[2]; NRVMs, FBS 10%, inhibitor pre-treatment 30 min", "result": "had no effect"}, {"measurement": "block of PE-induced nuclear export of HDAC5", "setting": "[2]; [3]", "result": "effective in blocking PE-dependent export of HDAC5; also recorded: inhibitory effect on PE-dependent HDAC5 nuclear export; also recorded: effective in blocking HDAC5 nuclear export"}, {"measurement": "sensitivity of PKD to the inhibitor", "setting": "PKD", "result": "not to Bis I or Gö6983"}]}, {"compound": "O=c1c2ccccc2[nH]c(=S)n1CCN1CCC(=C(c2ccc(F)cc2)c2ccc(F)cc2)CC1", "note": "[DAGK inhibitor II]", "values": [{"measurement": "block of PE-induced nuclear export of HDAC5", "setting": "[2]; [3]", "result": "did not significantly affect PE-induced nuclear export of HDAC5"}]}, {"compound": "CN(C)CCCn1cc(C2=C(c3c[nH]c4ccccc34)C(=O)NC2=O)c2ccccc21", "note": "[GF I]", "values": [{"measurement": "sensitivity of PKD to the inhibitor", "setting": "PKD", "result": "insensitive"}]}, {"compound": "COc1ccc2c(c1)c(C1=C(c3c[nH]c4ccccc34)C(=O)NC1=O)cn2CCCN(C)C", "note": "[Go6983]", "values": [{"measurement": "block of PE-induced nuclear export of HDAC5", "setting": "[2]; [3]", "result": "inhibiting HDAC5 nuclear export in response to PE"}, {"measurement": "sensitivity of PKD to the inhibitor", "setting": "PKD", "result": "not to Bis I or Gö6983"}]}, {"compound": "O=S(=O)(c1cccc2cnccc12)N1CCCNCC1", "note": "[HA1077]", "values": [{"measurement": "block of PE-induced nuclear export of HDAC5", "setting": "[2]; [3]", "result": "did not significantly affect PE-induced nuclear export of HDAC5"}]}, {"compound": "COc1ccc(S(=O)(=O)N(CCO)c2ccccc2CN(C)C/C=C/c2ccc(Cl)cc2)cc1", "note": "[KN93]", "values": [{"measurement": "block of PE-induced nuclear export of HDAC5", "setting": "[2]; [3]", "result": "did not significantly affect PE-induced nuclear export of HDAC5"}]}, {"compound": "Cn1cc(C2=C(c3cn(CCCSC(=N)N)c4ccccc34)C(=O)NC2=O)c2ccccc21", "note": "[Ro 31-8220]", "values": [{"measurement": "sensitivity of PKD to the inhibitor", "setting": "PKD", "result": "insensitive"}]}, {"compound": "Cn1cc(C2=C(c3ccc(Cl)cc3Cl)C(=O)NC2=O)c2ccccc21", "note": "[SB216763]", "values": [{"measurement": "block of PE-induced nuclear export of HDAC5", "setting": "[2]; [3]", "result": "did not significantly affect PE-induced nuclear export of HDAC5"}]}, {"compound": "N#CC(=C(/N)Sc1ccccc1N)/C(C#N)=C(/N)Sc1ccccc1N", "note": "[U1026]", "values": [{"measurement": "block of PE-induced nuclear export of HDAC5", "setting": "[2]; [3]", "result": "did not significantly affect PE-induced nuclear export of HDAC5"}]}, {"compound": "C[C@@H](N)[C@H]1CC[C@H](C(=O)Nc2ccncc2)CC1", "note": "[Y-27632]", "values": [{"measurement": "block of PE-induced nuclear export of HDAC5", "setting": "[2]; [3]", "result": "did not significantly affect PE-induced nuclear export of HDAC5"}]}, {"compound": "COc1ccc(C[C@H]2NC[C@H](O)[C@H]2OC(C)=O)cc1", "note": "[anisomycin]", "values": [{"measurement": "stimulation of nuclear export of GFP-HDAC5", "setting": "[1]", "result": "only ionomycin and PMA stimulated nuclear export"}]}, {"compound": "C[C@H](CCC(=O)O)C[C@H](C)C[C@H](C)C(=O)/C=C(\\O)[C@H](C)C[C@H](C)C/C=C/[C@@H](C)[C@@H](O)[C@@H](C)[C@@H](O)C[C@@H]1CC[C@@](C)([C@H]2CC[C@@](C)([C@@H](C)O)O2)O1", "note": "[ionomycin]", "values": [{"measurement": "stimulation of nuclear export of GFP-HDAC5", "setting": "[1]", "result": "partial response; also recorded: stimulated nuclear export of GFP-HDAC5"}]}, {"compound": "Nc1nc2c(nc(Sc3ccc(Cl)cc3)n2[C@@H]2O[C@@H]3COP(=O)(O)O[C@H]3[C@H]2O)c(=O)[nH]1", "note": "[pCPT-GMP]", "values": [{"measurement": "stimulation of nuclear export of GFP-HDAC5", "setting": "[1]", "result": "only ionomycin and PMA stimulated nuclear export"}]}, {"compound": "CN[C@@H]1C[C@H]2O[C@@](C)([C@@H]1OC)n1c3ccccc3c3c4c(c5c6ccccc6n2c5c31)C(=O)NC4", "note": "[staurosporine]", "values": [{"measurement": "block of PE-induced nuclear export of HDAC5", "setting": "[2]; [3]", "result": "effective in blocking PE-dependent export of HDAC5; also recorded: effective in blocking HDAC5 nuclear export"}]}, {"compound": "Endothelin-1 (CSCSSLMDKECVYFCHLDIIW; ends and bridges not checked; cysteine pairing not given here; UniProt P05305 53-73, looked up) [ET-1, hypertrophic agonist purchased from Sigma]", "values": [{"measurement": "agonist-triggered nuclear export of HDAC5 in cardiomyocytes", "setting": "[2]; NRVMs infected with Ad-GFP-HDAC5, PE 0.1 to 20 μM, ET-1 50 nM, FBS 10%", "result": "effectively promote nuclear export of HDAC5"}]}]}
